From patent publication US6432988B1, “2-arylalkylthio -imidazoles, 2-arylalkenyl -thio -imidazoles and 2-arylalkinyl -thio -imidazoles as anti -inflammatory substances and substances inhibiting the release of cytokine” (Merckle GmbH, priority 1998, dated 2002)
pIC50: −log10 of the molar value.

Legend:
5-lipoxygenase (5-LO) = target: T1, 5-lipoxygenase (5-LO) (Homo sapiens, UniProt P09917); assay: Inhibition of 5-lipoxygenase: LTB4 formation in human granulocytes stimulated with calcium ionophore A 23187, ELISA; type: cell-based; conditions: A 23187, LTB4 ELISA
T1 construct: The source used for the 5-lipoxygenase is human granulocytes; endogenous in cells; host or cells: human granulocytes isolated from heparinised blood
T1 sequence (P09917 1-674): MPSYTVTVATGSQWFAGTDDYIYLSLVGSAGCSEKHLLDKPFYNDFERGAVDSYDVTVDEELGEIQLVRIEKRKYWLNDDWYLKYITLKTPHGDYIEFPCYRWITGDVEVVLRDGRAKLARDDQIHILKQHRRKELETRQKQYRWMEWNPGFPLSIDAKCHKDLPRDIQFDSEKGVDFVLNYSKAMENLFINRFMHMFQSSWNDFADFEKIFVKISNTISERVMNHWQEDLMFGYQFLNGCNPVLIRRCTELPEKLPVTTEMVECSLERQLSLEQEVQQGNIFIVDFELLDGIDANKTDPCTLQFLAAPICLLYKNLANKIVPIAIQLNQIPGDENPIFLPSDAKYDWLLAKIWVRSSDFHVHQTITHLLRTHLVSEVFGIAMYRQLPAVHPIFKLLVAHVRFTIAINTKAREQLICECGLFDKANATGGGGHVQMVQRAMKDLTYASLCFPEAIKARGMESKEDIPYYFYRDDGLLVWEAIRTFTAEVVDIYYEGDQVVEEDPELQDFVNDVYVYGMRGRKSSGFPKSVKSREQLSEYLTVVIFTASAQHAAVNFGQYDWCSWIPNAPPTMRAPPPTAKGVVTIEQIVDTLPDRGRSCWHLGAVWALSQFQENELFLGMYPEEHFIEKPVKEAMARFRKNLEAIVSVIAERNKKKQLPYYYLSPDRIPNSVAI
Procedure: Test System for Determining the Inhibition of 5-lipoxygenase (5-LO)
The source used for the 5-lipoxygenase is human granulocytes. By stimulation with calcium ionophore A 23187, LTB4 (leukotriene B4) is formed from endogenous arachidonic acid. The granulocytes are isolated and the enzyme reaction is carried out according to known processes (see Arch. Pharm. Pharm. Med. Chem. 330, 307-312 (1997)).
The blood protected from clotting by heparin is centrifuged on a discontinuous Percoll® gradient and the granulocyte layer is removed by pipette. After lysis of the erythrocytes, the granulocytes are washed a number of times and then adjusted to a specific cell count. The enzyme reaction is then started in the presence or absence of the test substance after addition of Ca^2+ using calcium ionophore A 23187. The synthesis of the leukotrienes is stopped after 1.5 minutes. The samples are centrifuged off and the supernatant is diluted. LTB4 is determined quantitatively by means of ELISA.

Cyclooxygenase-2 (COX-2) = target: T2, Cyclooxygenase-2 (COX-2) (Ovis aries, UniProt P79208); assay: Inhibition of cyclooxygenase-2: COX-2 from sheep placenta, arachidonic acid, PGE2 by ELISA; type: biochemical; conditions: arachidonic acid 5 μm
T2 construct: COX-2 (from sheep placenta) is preincubated with test substance for 10 min at 4° C; from tissue; host or cells: sheep placenta
T2 sequence (P79208 17-603): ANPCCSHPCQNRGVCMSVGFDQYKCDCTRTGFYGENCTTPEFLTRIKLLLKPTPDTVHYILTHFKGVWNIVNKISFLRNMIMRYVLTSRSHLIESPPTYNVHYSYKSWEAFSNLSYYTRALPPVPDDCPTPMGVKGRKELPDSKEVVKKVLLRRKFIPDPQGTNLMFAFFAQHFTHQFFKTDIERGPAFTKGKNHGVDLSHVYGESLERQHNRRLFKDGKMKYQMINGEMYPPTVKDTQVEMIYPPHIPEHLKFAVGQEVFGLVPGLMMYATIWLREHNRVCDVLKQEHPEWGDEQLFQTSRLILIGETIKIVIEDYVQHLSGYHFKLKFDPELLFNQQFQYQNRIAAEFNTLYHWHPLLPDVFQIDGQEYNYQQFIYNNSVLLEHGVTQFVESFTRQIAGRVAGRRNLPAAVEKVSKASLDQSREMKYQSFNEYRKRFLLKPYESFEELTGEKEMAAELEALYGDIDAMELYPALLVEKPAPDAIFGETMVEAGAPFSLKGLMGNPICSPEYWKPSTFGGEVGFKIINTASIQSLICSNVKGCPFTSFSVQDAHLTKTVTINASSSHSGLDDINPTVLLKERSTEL
Procedure: Test System for Determining the Inhibition of Cyclooxygenase-2 (COX-2)
COX-2 (from sheep placenta) is preincubated with test substance for 10 min at 4° C., then stimulated with arachidonic acid (5 μm) at 25° C. for 10 min. […] Determination is carried out 3 dilutions (10^−7, 10^−6, 10^−5 molar). The PGE2 concentrations are quantified by means of ELISA (see Mitchell J. A. et al. Proc. Nat. Acad. Sci 90: 11693-11697 (1993)).

IL-1β [1] = assay: Inhibition of LPS-stimulated cytokine secretion in human PBMC (IL-1β); type: cell-based; conditions: LPS 1 μg/ml, 24 h
Procedure: (§1) Test System for Determining the Inhibition of LPS-stimulated Cytokine Secretion (TNF-α, IL-1β)
(§2) Human PBMC (peripheral blood mononuclear cells) are preincubated with test substance for 5 min at 37° C., then stimulated with LPS (1 μg/ml) for 24 h at 37° C. The cytokines TNF-α, IL-1β, IL-6 and IL-8 are Determined by means of ELISA (see Blood 75, 40-47 (1990)).

TNF-α [2] = assay: Inhibition of LPS-stimulated cytokine secretion in human PBMC (TNF-α); type: cell-based; conditions: LPS 1 μg/ml, 24 h, read-out: TNFα, PBMC (IC50 values)
Procedure: as §1, §2

Cyclooxygenase-1 (COX-1) = target: T3, Cyclooxygenase-1 (COX-1) (Homo sapiens, UniProt P23219); assay: Inhibition of cyclooxygenase-1: prostaglandin E2 formed by human platelets after calcium ionophore, ELISA; type: cell-based; conditions: PGE2 ELISA
T3 construct: endogenous in cells; host or cells: human platelets
T3 sequence (P23219 24-599): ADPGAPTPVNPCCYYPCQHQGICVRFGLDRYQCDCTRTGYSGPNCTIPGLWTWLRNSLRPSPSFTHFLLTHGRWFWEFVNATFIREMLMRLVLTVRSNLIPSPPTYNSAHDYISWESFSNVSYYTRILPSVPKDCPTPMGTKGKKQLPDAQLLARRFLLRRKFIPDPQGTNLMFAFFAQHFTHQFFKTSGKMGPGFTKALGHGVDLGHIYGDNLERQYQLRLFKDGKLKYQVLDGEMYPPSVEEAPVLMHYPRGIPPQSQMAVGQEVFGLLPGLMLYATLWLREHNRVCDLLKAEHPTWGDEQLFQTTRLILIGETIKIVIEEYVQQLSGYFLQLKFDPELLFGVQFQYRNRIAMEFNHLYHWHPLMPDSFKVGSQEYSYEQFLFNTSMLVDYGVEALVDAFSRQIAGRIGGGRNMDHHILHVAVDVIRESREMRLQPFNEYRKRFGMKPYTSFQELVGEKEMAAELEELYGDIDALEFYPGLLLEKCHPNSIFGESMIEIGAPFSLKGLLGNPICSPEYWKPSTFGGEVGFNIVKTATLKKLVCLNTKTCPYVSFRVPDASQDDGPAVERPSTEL
Procedure: Test System for Determining the Inhibition of Cyclooxygenase-1 (COX-1)
In this test system, the amount of prostaglandin E2 formed by human platelets after addition of calcium ionophore is determined by means of ELISA. The platelets are obtained here after centrifugation on a discontinuous Percoll® gradient. The enzyme reaction and the determination of the metabolites formed are in principle carried out as in the determination of the inhibition of 5-lipoxygenase. Differences exist with respect to the incubation time. Furthermore, the addition of a thromboxane synthase inhibitor is necessary (see Arch. Pharm. Pharm. Med. Chem. 330, 307-312 (1997)).

IL-1β [3] = assay: Inhibition of LPS-stimulated cytokine secretion in whole blood (IL-1β); type: cell-based; conditions: human whole blood, LPS 1 μg/ml, 4 h; read-out: IL-1β, Whole blood method (IC50 values)
Procedure: (§3) Test System for Determining the Inhibition of LPS-stimulated Cytokine Secretion (TNF-α, IL-1β) in Whole Blood
(§4) Fresh, human whole blood from healthy donors is preincubated with test substance for 25 min at 37° C. The cells are stimulated with LPS (1 μg/ml) for 4 h at 37° C. In the plasma supernatant which is isolated by centrifugation, the cytokines TNF-α, IL-1β, IL-6 and IL-8 are quantified by means of ELISA (see Inflamm. Res. 44, 269-274 (1995)).

TNF-α [4] = assay: Inhibition of LPS-stimulated cytokine secretion in whole blood (TNF-α); type: cell-based; conditions: human whole blood, LPS 1 μg/ml, 4 h; read-out: TNFα, Whole blood method (IC50 values)
Procedure: as §3, §4

pIC50 (5-lipoxygenase (5-LO)) | pIC50 (Cyclooxygenase-2 (COX-2)) | pIC50 (IL-1β [1]) | pIC50 (TNF-α [2]) | pIC50 (Cyclooxygenase-1 (COX-1)) | pIC50 (IL-1β [3]) | pIC50 (TNF-α [4]) | SMILES
> 8.00 | 5.52 | 4.24 | 5.22 | 5.19 |  |  | CSc1ccc(CCSc2nc(-c3ccncc3)c(-c3ccc(F)cc3)[nH]2)cc1 [Example 6, 2-[2-(4-Methylthiophenyl)ethylthio]-5-(4-fluorophenyl)4-(4-pyridyl)imidazole]
 |  |  |  |  | 4.92 | 5.05 | C[S+]([O-])c1cc(CSc2nc(-c3ccncc3)c(-c3ccc(F)cc3)[nH]2)ccc1O (stereo not shown) [Example 12, 5-(4-Fluorophenyl)-2-[(4-hydroxy-3-methylsulfinylphenyl)methylthio]-4-(4-pyridyl)-1H-imidazole]
 |  |  |  |  | 5.40 | 4.32 | C[S+]([O-])c1ccccc1CSc1nc(-c2ccncc2)c(-c2ccc(F)cc2)[nH]1 (stereo not shown) [Example 10, 5-(4-Fluorophenyl)-2-[(2-methylsulfinylphenyl)methylthio]-4-(4-pyridyl)-1H-imidazole]
7.19 | 5.21 | < 4.00 | 5.00 | 5.47 | 4.52 | 4.52 | CSc1ccc(CSc2nc(-c3ccncc3)c(-c3ccc(F)cc3)[nH]2)cc1 [Example 1, 5-(4-Fluorophenyl)-2-[(4-methylthio)benzylthio]-4-(4-pyridyl)imidazole]

The remaining lines, values behind:

SMILES | pIC50 (5-lipoxygenase (5-LO)) | pIC50 (Cyclooxygenase-2 (COX-2)) | pIC50 (IL-1β [1]) | pIC50 (TNF-α [2]) | pIC50 (Cyclooxygenase-1 (COX-1)) | pIC50 (IL-1β [3]) | pIC50 (TNF-α [4])
NS(=O)(=O)c1ccc(CSc2nc(-c3ccncc3)c(-c3ccc(F)cc3)[nH]2)cc1 [Example 5, 2-[(4-Aminosulfonylphenyl)methylthio]-5-(4-fluorophenyl)-4-(4-pyridyl)imidazole] | 5.55 | 5.00 | 4.74 | 5.51 | 7.42 |  | 
C[S+]([O-])c1ccc(CSc2nc(-c3ccncc3)c(-c3ccc(F)cc3)[nH]2)cc1 (stereo not shown) [Example 2, 5-(4-Fluorophenyl)-2-[(4-methylsulfinyl)benzylthio]-4-(4-pyridyl)imidazole] | 5.00 | 5.20 | 5.64 | 5.17 |  | 5.54 | 4.80
CS(=O)(=O)c1ccc(CCSc2nc(-c3ccncc3)c(-c3ccc(F)cc3)[nH]2)cc1 [Example 7, 5-(4-Fluorophenyl)-2-[2-(4-methylsulfonylphenyl)ethylthio]-4-(4-pyridyl)imidazole] |  |  | 4.68 | 4.85 |  |  | 
C[S+]([O-])c1ccc(O)c(CSc2nc(-c3ccncc3)c(-c3ccc(F)cc3)[nH]2)c1 (stereo not shown) [Example 16, 2-[(2-Hydroxy-5-methylsulfinylphenyl)methylthio]-5-(4-fluorophenyl)-4-(4-pyridyl)-1H-imidazole] |  |  | 6.19 | 5.38 |  | 4.89 | 4.12
CS(=O)(=O)c1ccc(-c2nc(-c3ccc(F)cc3)c(-c3ccncc3)[nH]2)cc1 [Reference B, reference compound] |  |  | 5.12 |  |  |  | 
C[S+]([O-])c1cccc(CSc2nc(-c3ccncc3)c(-c3ccc(F)cc3)[nH]2)c1 (stereo not shown) [Example 9, 5-(4-Fluorophenyl)-2-[(3-methylsulfinylphenyl)methylthio]-4-(4-pyridyl)-1H-imidazole] |  |  |  |  |  | 5.72 | 4.62
NS(=O)(=O)c1ccc(CCSc2nc(-c3ccncc3)c(-c3ccc(F)cc3)[nH]2)cc1 [Example 4, 2-[2-(4-Aminosulfonylphenyl)ethylthio]-5-(4-fluorophenyl)-4-(4-pyridyl)imidazole] | 7.07 | 5.15 | 5.03 | 5.48 | 5.66 |  | 
CS(=O)(=O)c1ccc(CSc2nc(-c3ccncc3)c(-c3ccc(F)cc3)[nH]2)cc1 [Example 3, 5-(4-Fluorophenyl)-2-[(4-methylsulfonyl)benzylthio]-4-(4-pyridyl)imidazole] | 6.10 |  | < 4.00 | 5.40 |  | 5.92 | 4.72
